This passage reports LC50 results from US20240150356A1, “Pyrimidine amide compounds and use thereof” (ALPHALA CO., LTD., priority 2019, published 2024).

A value given as a limit tells only on which side of the number the result lay.

One test deals with Hep3B cells (hepatocellular carcinoma cell line). Briefly: In vitro MTS cell viability assay (NCI-60 methodology), Hep3B. It is filed as cell-based. The following applies: Homo sapiens, 48 h, Table 1, MTS, 2 days drug incubation, 50% reduction vs time zero, read-out: Hep3B LC50. Here is the method: The cell viability measurement is based on the NCI-60 screening methodology (Nat. Rev. Cancer 6, 813-823, 2006). Briefly, cells are inoculated into 96-well plates at the optimal plating density. After 24 h, one of the two plates for Hep3B cell line is processed to determine a time zero cell viability (Tz) by MTS assay (Promega). Compounds are added over a 2-fold serial dilution to provide a total five drug concentrations plus DMSO control. Plates are incubated for a further 2 days, then measured cell viability by MTS assay [control growth (C) and test growth in the presence of drug at the five concentration levels (Ti)]. The LC50 is calculated from [(Ti−Tz)/Tz]×100=−50, which is the drug concentration resulting in a 50% reduction at the end of the drug treatment as compared to that at the beginning.
The compounds prepared in Tables 1-10 were tested in three in vitro assays, and the results are shown in Tables 1-10 for Hep3B and Table 11 for SW480 and NCI-H460 shown below. Herein, Hep3B refers to hepatocellular carcinoma cell line, SW480 refers to colon adenocarcinoma cell line, and NCI-H460 refers to human lung cancer cell line.
Shown in following Tables 1 to 10 are the structures and in vitro activities of exemplary compounds of formula (I).
In general terms: Formazan colour is commonly taken as a measure of viable cells.
Usually LC50 stands for the concentration that kills 50% of the test population. `CCC(C)(C)c1ccc(-c2nc(NC(=O)c3ccc([N+](=O)[O-])s3)c3cnn(C)c3n2)cc1` [Compound 1-9, N-(1-methyl-6-(4-(tert-pentyl)phenyl)-1H-pyrazolo[3,4-d]pyrimidin-4-yl)-5-nitrothiophene-2-carboxamide]: the LC50 came to 1500 nM.

The test is the same for the next values; noted with them: Homo sapiens, 48 h, Table 3, MTS, 2 days drug incubation, 50% reduction vs time zero, read-out: Hep3B LC50.
As to `Cn1cc2nc(-c3ccc(C(C)(C)C)cc3)nc(NC(=O)c3ccc([N+](=O)[O-])s3)c2c1` [Compound 3-10, N-(2-(4-(tert-butyl)phenyl)4-methyl-6H-pyrrolo[3,4,d]pyrimidin-4-yl)-5-nitrothiophene-2-carboxamide], the median lethal concentration (LC50) turned out to be 10000 nM.

Still in this test, the particulars now being: Homo sapiens, 48 h, Table 4, MTS, 2 days drug incubation, 50% reduction vs time zero, read-out: Hep3B LC50.
In the case of `Cc1csc2c(NC(=O)c3ccc([N+](=O)[O-])s3)nc(-c3ccc(F)cc3)nc12` [Compound 4-8], the median lethal concentration (LC50) came to 1700 nM.

Staying with this test, now noted: Homo sapiens, 48 h, Table 5, MTS, 2 days drug incubation, 50% reduction vs time zero, read-out: Hep3B LC50.
Turning to `O=C(Nc1nc(Sc2ccccc2)nc2c1cnn2-c1ccccc1)c1ccc([N+](=O)[O-])s1` [Compound 5-15, 5-nitro-N-(1-phenyl-6-(phenylthio)-1H-pyrazolo[3,4-d]pyrimidin-4-yl)thiophene-2-carboxamide], the 50% lethal concentration (LC50) is over 5000 nM.

Take `O=C(Nc1nc(Sc2ccc(Cl)cc2)nc2c1cnn2-c1ccccc1)c1ccc([N+](=O)[O-])s1` [Compound 5-16]: the median lethal concentration (LC50) is 360 nM.

In the case of `CCOCCOCCOc1ccc(-c2nc(NC(=O)c3ccc([N+](=O)[O-])s3)c3cnn(-c4ccccc4)c3n2)cn1` [Compound 5-57, N-(6-(6-(2-(2-ethoxyethoxy)ethoxy)pyridin-3-yl)-1-phenyl-1H-pyrazolo[3,4-d]pyrimidin-4-yl)-5-nitrothiophene-2-carboxamide], the LC50 turned out to be 790 nM.

The same test, now with this note: Homo sapiens, 48 h, Table 6, MTS, 2 days drug incubation, 50% reduction vs time zero, read-out: Hep3B LC50.
On to `CCOCCOc1ccc(-c2nc(NC(=O)c3ccc([N+](=O)[O-])s3)c3cnn(-c4ccc(C)cc4)c3n2)cn1` [Compound 6-13, N-(6-(6-(2-ethoxyethoxy)pyridin-3-yl)-1-(p-tolyl)-1H-pyrazolo[3,4-d]pyrimidin-4-yl)-5-nitrothiophene-2-carboxamide], for which the median lethal concentration (LC50) is 510 nM.

As to `O=C(Nc1nc(-c2ccc3c(c2)OCO3)nc2c1cnn2-c1ccc(F)cc1)c1ccc([N+](=O)[O-])s1` [Compound 6-124, N-(6-(benzo[d][1,3]dioxol-5-yl)-1-(4-fluorophenyl)-1H-pyrazolo[3,4-d]pyrimidin-4-yl)-5-nitrothiophene-2-carboxamide], the LC50 was 550 nM.

For `CCOCCOCCOc1nc(NC(=O)c2ccc([N+](=O)[O-])s2)c2cnn(-c3ccc(C(C)(C)C)cc3)c2n1` [Compound 6-61], the LC50 came out at 540 nM.

In the case of `COCCOc1ccc(-c2nc(NC(=O)c3ccc([N+](=O)[O-])s3)c3cnn(-c4cccc(Cl)c4)c3n2)cn1` [Compound 6-43, N-(1-(3-chlorophenyl)-6-(6-(2-methoxyethoxy)pyridin-3-yl)-1H-pyrazolo[3,4-d]pyrimidin-4-yl)-5-nitrothiophene-2-carboxamide], the LC50 came out at 90 nM.

As to `CCOCCOCCOc1ccc(-c2nc(NC(=O)c3ccc([N+](=O)[O-])s3)c3cnn(-c4ccc(C)cc4)c3n2)cn1` [Compound 6-14], the LC50 was found to be 220 nM.

For the compound `CC(C)(C)c1ccc(-n2ncc3c(NC(=O)c4ccc([N+](=O)[O-])s4)nc(N4CCCCC4)nc32)cc1` [Compound 6-63, N-(1-(4-(tert-butyl)phenyl)-6-(piperidin-1-yl)-1H-pyrazolo[3,4-d]pyrimidin-4-yl)-5-nitrothiophene-2-carboxamide], the LC50 stood at 1920 nM.

Take `CC(C)(C)c1ccc(-n2ncc3c(NC(=O)c4ccc([N+](=O)[O-])s4)nc(-c4nnc(C(C)(C)C)o4)nc32)cc1` [Compound 6-76, N-(6-(5-(tert-butyl)-1,3,4-oxadiazol-2-yl)-1-(4-(tert-butyl)phenyl)-1H-pyrazolo[3,4-d]pyrimidin-4-yl)-5-nitrothiophene-2-carboxamide]: the LC50 came to 310 nM.

As for `COc1ccc(-n2ncc3c(NC(=O)c4ccc([N+](=O)[O-])s4)nc(-c4ccc(F)c(F)c4)nc32)cc1` [Compound 6-23, N-(6-(3,4-difluorophenyl)-1-(4-methoxyphenyl)-1H-pyrazolo[3,4-d]pyrimidin-4-yl)-5-nitrothiophene-2-carboxamide], the LC50 came out at 170 nM.

Consider `O=C(Nc1nc(-c2ccc3c(c2)OCO3)nc2c1cnn2-c1ccc(Cl)cc1)c1ccc([N+](=O)[O-])s1` [Compound 6-50, N-(6-(benzo[d][1,3]dioxol-5-yl)-1(4-chlorophenyl)-1H-pyrazolo[3,4-d]pyrimidin-4-yl)-5-nitrothiophene-2-carboxamide], for which the median lethal concentration (LC50) was found to be 160 nM.

For the compound `O=C(Nc1nc(-c2ccc(N3CCOCC3)nc2)nc2c1cnn2-c1ccc(F)cc1)c1ccc([N+](=O)[O-])s1` [Compound 6-141, N-(1-(4-fluorophenyl)-6-(6-morpholinopyridin-3-yl)-1H-pyrazolo[3,4-d]pyrimidin-4-yl)-5-nitrothiophene-2-carboxamide], the LC50 was 420 nM.

Take `CC(C)(C)c1ccc(-n2ncc3c(NC(=O)c4ccc([N+](=O)[O-])s4)nc(OCC(F)(F)C(F)F)nc32)cc1` [Compound 6-59, N-(1-(4-(tert-butyl)phenyl)-6-(2,2,3,3-tetrafluoropropoxy)-1H-pyrazolo[3,4-d]pyrimidin-4-yl)-5-nitrothiophene-2-carboxamide]: the LC50 is 500 nM.

For the compound `CCOCCOCCOc1ccc(-c2nc(NC(=O)c3ccc([N+](=O)[O-])s3)c3cnn(-c4cccc(F)c4)c3n2)cn1` [Compound 6-96, N-(6-(6-(2-(2-ethoxyethoxy)ethoxy)pyridin-3-yl)-1-(3-fluorophenyl)-1H-pyrazolo[3,4-d]pyrimidin-4-yl)-5-nitrothiophene-2-carboxamide], the LC50 was 350 nM.

Regarding `Cc1ccn(-c2nc(NC(=O)c3ccc([N+](=O)[O-])s3)c3cnn(-c4ccc(Cl)cc4)c3n2)n1` [Compound 6-46, N-(1-(4-chlorophenyl)-6-(3-methyl-1H-pyrazol-1-yl)-1H-pyrazolo[3,4-d]pyrimidin-4-yl)-5-nitrothiophene-2-carboxamide], the LC50 was 160 nM.

The test is the same for the next values; noted with them: Homo sapiens, 48 h, Table 7, MTS, 2 days drug incubation, 50% reduction vs time zero, read-out: Hep3B LC50.
For `O=C(Nc1nc(-c2ccc(F)nc2)nc2c1cnn2-c1ccc(C(F)(F)F)cn1)c1ccc([N+](=O)[O-])s1` [Compound 7-2, N-(6-(6-fluoropyridin-3-yl)-1-(5-(trifluoromethyl)pyridin-2-yl)-1H-pyrazolo[3,4,d]pyrimidin-4-yl)-5-nitrothiophene-2-carboxamide], the 50% lethal concentration (LC50) came to 150 nM.

Still in this test, the particulars now being: Homo sapiens, 48 h, Table 8, MTS, 2 days drug incubation, 50% reduction vs time zero, read-out: Hep3B LC50.
As for `C[C@@H]1C[C@@H](n2ncc3c(NC(=O)c4ccc([N+](=O)[O-])s4)nc(-c4ccc(Cl)nc4)nc32)CC(C)(C)C1` [Compound 8-16, N-(6-(6-chloropyridin-3-yl)-1-((1R,5S)-3,3,5-trimethylcyclohexyl)-1H-pyrazolo[3,4-d]pyrimidin-4-yl)-5-nitrothiophene-2-carboxamide], the 50% lethal concentration (LC50) turned out to be 590 nM.

Still in this test, the particulars now being: Homo sapiens, 48 h, Table 9, MTS, 2 days drug incubation, 50% reduction vs time zero, read-out: Hep3B LC50.
For the compound `CC(C)N1CCC(n2ncc3c(NC(=O)c4ccc([N+](=O)[O-])s4)nc(-c4ccc(F)nc4)nc32)CC1` [Compound 9-1], the LC50 was 1250 nM.

Staying with this test, now noted: Homo sapiens, 48 h, Table 10, MTS, 2 days drug incubation, 50% reduction vs time zero, read-out: Hep3B LC50.
For `O=C(Nc1nc(-c2ccco2)nc2c1cnn2C1CCCCC1)c1ccc([N+](=O)[O-])s1` [Compound 10-4, N-(1-cyclohexyl-6-(furan-2-yl)-1H-pyrazolo[3,4-d]pyrimidin-4-yl)-5-nitrothiophene-2-carboxamide], the LC50 turned out to be 1190 nM.

In the case of `CC1CC(C)CC(n2ncc3c(NC(=O)c4ccc([N+](=O)[O-])s4)nc(-c4ccc(Cl)nc4)nc32)C1` (stereo not drawn) [Compound 10-70, N-(6-(6-chloropyridin-3-yl)-1-(3,5-dimethylcyclohexyl)-1H-pyrazolo[3,4-d]pyrimidin-4-yl)-5-nitrothiophene-2-carboxamide], the LC50 was 960 nM.

`N#Cc1ccc(-c2nc(NC(=O)c3ccc([N+](=O)[O-])s3)c3cnn(C4CCCCC4)c3n2)cc1` [Compound 10-20, N-(6-(4-cyanophenyl)-1-cyclohexyl-1H-pyrazolo[3,4-d]pyrimidin-4-yl)-5-nitrothiophene-2-carboxamide]: the LC50 was determined as 1200 nM.

As to `O=C(Nc1nc(-c2ccc(C(F)(F)F)cc2)nc2c1cnn2C1CCC(F)(F)CC1)c1ccc([N+](=O)[O-])s1` [Compound 10-58, N-(1-(4,4-difluorocyclohexyl)-6-(4-(trifluoromethyl)phenyl)-1H-pyrazolo[3,4-d]pyrimidin-4-yl)-5-nitrothiophene-2-carboxamide], the LC50 was determined as 610 nM.

For `CC1(C)CCC(n2ncc3c(NC(=O)c4ccc([N+](=O)[O-])s4)nc(-c4ccc(Cl)cc4)nc32)CC1` [Compound 10-63, N-(6(4-chlorophenyl)-1-(4,4-dimethylcyclohexyl)-1H-pyrazolo[3,4-d]pyrimidin-4-yl)-5-nitrothiophene-2-carboxamide], the LC50 stood at 860 nM.
